Experimental findings from ChEMBL document CHEMBL5724914, “Linking interpersonal differences in gut microbiota composition and drug biotransformation activity” (2024) are described below.

Data set [1] in a line: The drug is tested on Z-011 corresponding to mouse gut metagenome with ENA study accession number: PRJEB37062 and ENA sample accession number: ERS12561811 for biotransformation under anaerobic condition. The drug concentrations were measured over 9 timepoints collected between 0 and 24 hours of incubation by liquid-chromatography-coupled mass spectrometry (LC–MS). As to conditions: 2 µM.

For data set [2] the following is noted: human gut metagenome, 24 h, 2 µM.
Data set [3] can be described thus: The drug is tested on WLS-090 corresponding to human gut metagenome with ENA study accession number: PRJEB37062 and ENA sample accession number: ERS12561753 for biotransformation under anaerobic condition. The drug concentrations were measured over 9 timepoints collected between 0 and 24 hours of incubation by liquid-chromatography-coupled mass spectrometry (LC–MS). As to conditions: 2 µM.

The nature of data set [4]: The drug is tested on Z-010 corresponding to metagenome with ENA study accession number: PRJEB37062 and ENA sample accession number: ERS12561810 for biotransformation under anaerobic condition. The drug concentrations were measured over 9 timepoints collected between 0 and 24 hours of incubation by liquid-chromatography-coupled mass spectrometry (LC–MS). As to conditions: 2 µM.

Data set [5] can be described thus: The drug is tested on Z-009 corresponding to pig gut metagenome with ENA study accession number: PRJEB37062 and ENA sample accession number: ERS12561809 for biotransformation under anaerobic condition. The drug concentrations were measured over 9 timepoints collected between 0 and 24 hours of incubation by liquid-chromatography-coupled mass spectrometry (LC–MS). As to conditions: 2 µM.

Data set [6] in a line: The drug is tested on WLS-220 corresponding to human gut metagenome with ENA study accession number: PRJEB37062 and ENA sample accession number: ERS12561769 for biotransformation under anaerobic condition. The drug concentrations were measured over 9 timepoints collected between 0 and 24 hours of incubation by liquid-chromatography-coupled mass spectrometry (LC–MS). To be noted: 2 µM.

Data set [7] is described as follows: The drug is tested on Z-013 corresponding to rabbit gut metagenome with ENA study accession number: PRJEB37062 and ENA sample accession number: ERS12561813 for biotransformation under anaerobic condition. The drug concentrations were measured over 9 timepoints collected between 0 and 24 hours of incubation by liquid-chromatography-coupled mass spectrometry (LC–MS). As to conditions: 2 µM.

For data set [8] the following is noted: human gut metagenome, 24 h, 2 µM. This is another data set of the same source.
A short description of data set [9]: The drug is tested on WLS-240 corresponding to human gut metagenome with ENA study accession number: PRJEB37062 and ENA sample accession number: ERS12561773 for biotransformation under anaerobic condition. The drug concentrations were measured over 9 timepoints collected between 0 and 24 hours of incubation by liquid-chromatography-coupled mass spectrometry (LC–MS). To be noted: 2 µM.

The nature of data set [10]: The drug is tested on Z-030 corresponding to mouse gut metagenome with ENA study accession number: PRJEB37062 and ENA sample accession number: ERS12561829 for biotransformation under anaerobic condition. The drug concentrations were measured over 9 timepoints collected between 0 and 24 hours of incubation by liquid-chromatography-coupled mass spectrometry (LC–MS). As to conditions: 2 µM.

The conditions of data set [11]: human gut metagenome, 24 h, 2 µM. The source holds these as a separate data set.
Data set [12] is described as follows: The drug is tested on Z-025 corresponding to rabbit gut metagenome with ENA study accession number: PRJEB37062 and ENA sample accession number: ERS12561824 for biotransformation under anaerobic condition. The drug concentrations were measured over 9 timepoints collected between 0 and 24 hours of incubation by liquid-chromatography-coupled mass spectrometry (LC–MS). To be noted: 2 µM.

The conditions of data set [13]: human gut metagenome, 24 h, 2 µM. The source holds these as a separate data set.
For data set [14] the following is noted: human gut metagenome, 24 h, 2 µM. The source holds these as a separate data set.
A short description of data set [15]: The drug is tested on Z-023 corresponding to metagenome with ENA study accession number: PRJEB37062 and ENA sample accession number: ERS12561822 for biotransformation under anaerobic condition. The drug concentrations were measured over 9 timepoints collected between 0 and 24 hours of incubation by liquid-chromatography-coupled mass spectrometry (LC–MS). As to conditions: 2 µM.

The conditions of data set [16]: human gut metagenome, 24 h, 2 µM. This is another data set of the same source.
The conditions of data set [17]: human gut metagenome, 24 h, 2 µM. This is another data set of the same source.
The conditions of data set [18]: human gut metagenome, 24 h, 2 µM. The source holds these as a separate data set.
Data set [19] in a line: The drug is tested on Z-003 corresponding to pig gut metagenome with ENA study accession number: PRJEB37062 and ENA sample accession number: ERS12561803 for biotransformation under anaerobic condition. The drug concentrations were measured over 9 timepoints collected between 0 and 24 hours of incubation by liquid-chromatography-coupled mass spectrometry (LC–MS). To be noted: 2 µM.

A short description of data set [20]: The drug is tested on Z-017 corresponding to mouse gut metagenome with ENA study accession number: PRJEB37062 and ENA sample accession number: ERS12561816 for biotransformation under anaerobic condition. The drug concentrations were measured over 9 timepoints collected between 0 and 24 hours of incubation by liquid-chromatography-coupled mass spectrometry (LC–MS). As to conditions: 2 µM.
Note: call rule not given here.

`CC#C[C@]1(O)CC[C@H]2[C@@H]3CCC4=CC(=O)CCC4=C3[C@@H](c3ccc(N(C)C)cc3)C[C@@]21C` [MIFEPRISTONE]: the “Bacterial Biotransformation” value in data set [1], in [2], in [3], in data set [4], in [5] and in data set [6] was “Compound metabolized” throughout. Moreover, the “Bacterial Biotransformation” value in data set [7] was “Compound metabolized”; in data set [8], “Compound metabolized”; in data set [9], “Compound metabolized”; in [10] it was “Compound NOT metabolized”; in data set [11] it was “Compound NOT metabolized”; in data set [12], “Compound NOT metabolized”. The “Bacterial Biotransformation” value in [13] is reported as “Compound NOT metabolized”; in data set [14], “Compound metabolized”; in data set [15] it was “Compound NOT metabolized”; in data set [16] it was “Compound NOT metabolized”; in data set [17], “Compound metabolized”; in [18] it was “Compound NOT metabolized”. In addition, the results for the “Bacterial Biotransformation” value in data set [19] and in data set [20] were “Compound metabolized” and “Compound NOT metabolized”, respectively.

Regarding `CC(C)(C)NCC(O)COc1cccc2c1CC(O)C(O)C2` (stereo not given) [NADOLOL], the “Bacterial Biotransformation” value is “Compound metabolized” in data set [1]; “Compound metabolized” in [2]; “Compound metabolized” in data set [3]; “Compound metabolized” in [4]; “Compound metabolized” in [5]; “Compound NOT metabolized” in data set [6]. In addition, the “Bacterial Biotransformation” value is listed as “Compound NOT metabolized” in [7]; “Compound NOT metabolized” in data set [8]; “Compound metabolized” in data set [9]; “Compound NOT metabolized” in data set [10]; “Compound NOT metabolized” in data set [11]; “Compound NOT metabolized” in [12]. Also, the “Bacterial Biotransformation” value is on record as “Compound NOT metabolized” in data set [13]; “Compound NOT metabolized” in data set [14]; “Compound NOT metabolized” in [15]; “Compound NOT metabolized” in data set [16]; “Compound metabolized” in [17]; “Compound NOT metabolized” in [18]. For the same compound, the “Bacterial Biotransformation” value in [19] is reported as “Compound metabolized”; in [20], “Compound NOT metabolized”.

`CC(C)[C@H]1CC[C@H](C(=O)N[C@H](Cc2ccccc2)C(=O)O)CC1` [NATEGLINIDE]: the “Bacterial Biotransformation” value in [1], in [2], in data set [3], in [4], in data set [5] and in [6] was “Compound metabolized” throughout. Further, the “Bacterial Biotransformation” value is “Compound metabolized” in [7]; “Compound metabolized” in [8]; “Compound metabolized” in data set [9]; “Compound NOT metabolized” in data set [10]; “Compound metabolized” in data set [11]; “Compound metabolized” in data set [12]. The “Bacterial Biotransformation” value in data set [13], in data set [14], in data set [15], in data set [16], in data set [17] and in [18] was “Compound metabolized” throughout. Besides, the “Bacterial Biotransformation” value in [19] is recorded as “Compound metabolized”; in data set [20], “Compound NOT metabolized”.

Take `CN(C)C(=O)Oc1cccc([N+](C)(C)C)c1.[Br-]` [NEOSTIGMINE BROMIDE]: the “Bacterial Biotransformation” value in [1], in data set [2], in [3], in [4], in data set [5] and in [6] was “Compound NOT metabolized” in each case. For the same compound, the “Bacterial Biotransformation” value in [7], in data set [8], in [9], in data set [10], in [11] and in [12] was “Compound NOT metabolized” throughout. Moreover, the “Bacterial Biotransformation” value in data set [13], in data set [14], in [15], in data set [16], in data set [17] and in data set [18] was “Compound NOT metabolized” each time. In addition, the “Bacterial Biotransformation” value in data set [19] is “Compound metabolized”; in data set [20], “Compound NOT metabolized”.

For `Cc1ccccc1C(OCCN(C)C)c1ccccc1.O=C(O)CC(O)(CC(=O)O)C(=O)O` (stereo not given) [ORPHENADRINE CITRATE], the “Bacterial Biotransformation” value is on record as “Compound NOT metabolized” in data set [1]; “Compound NOT metabolized” in data set [2]; “Compound NOT metabolized” in data set [3]; “Compound NOT metabolized” in data set [4]; “Compound metabolized” in [5]; “Compound NOT metabolized” in data set [6]. The “Bacterial Biotransformation” value in data set [7] is reported as “Compound NOT metabolized”; in data set [8], “Compound NOT metabolized”; in [9], “Compound NOT metabolized”; in [10] it was “Compound NOT metabolized”; in [11], “Compound NOT metabolized”; in data set [12] it was “Compound metabolized”. In addition, the “Bacterial Biotransformation” value was “Compound NOT metabolized” in data set [13]; “Compound metabolized” in data set [14]; “Compound metabolized” in data set [15]; “Compound NOT metabolized” in data set [16]; “Compound NOT metabolized” in data set [17]; “Compound NOT metabolized” in data set [18]. Also, the “Bacterial Biotransformation” value in data set [19] and in [20] was “Compound NOT metabolized” in each case.
